The results in this text go back to ChEMBL document CHEMBL1158979, “Ryanodyl 3-(pyridine-3-carboxylate): a novel ryanoid from Ryania insecticide” (J Nat Prod, 1991).

The source made the active and inactive calls. The rule behind the calls is not given here.

One series relates to Musca domestica. In words: Insecticidal activity against Musca domestica in presence of piperonyl butoxide applied topically. It counts as functional, organism-based.
For the next series, the system named is Tribolium castaneum. Kind of series: Insecticidal activity against Tribolium castaneum first instar larvae. Type of series: functional, organism-based.
In the next series the test system is Mus musculus. In words: Toxicity in ip dosed mouse. Type of series: organism-based. Conditions: in vivo.
For series [1], the target named is Ryanodine receptor 1 (Oryctolagus cuniculus) (UniProt P11716). Kind of series: Displacement of [3H]ryanodine from Ca2+- ryanodine 1 receptor complex in rabbit skeletal muscle. On the technique in general: Loss of bound radioactivity is the signal in a displacement assay; it reports binding, not function.
Sequence of Ryanodine receptor 1 (Oryctolagus cuniculus) (P11716 whole entry): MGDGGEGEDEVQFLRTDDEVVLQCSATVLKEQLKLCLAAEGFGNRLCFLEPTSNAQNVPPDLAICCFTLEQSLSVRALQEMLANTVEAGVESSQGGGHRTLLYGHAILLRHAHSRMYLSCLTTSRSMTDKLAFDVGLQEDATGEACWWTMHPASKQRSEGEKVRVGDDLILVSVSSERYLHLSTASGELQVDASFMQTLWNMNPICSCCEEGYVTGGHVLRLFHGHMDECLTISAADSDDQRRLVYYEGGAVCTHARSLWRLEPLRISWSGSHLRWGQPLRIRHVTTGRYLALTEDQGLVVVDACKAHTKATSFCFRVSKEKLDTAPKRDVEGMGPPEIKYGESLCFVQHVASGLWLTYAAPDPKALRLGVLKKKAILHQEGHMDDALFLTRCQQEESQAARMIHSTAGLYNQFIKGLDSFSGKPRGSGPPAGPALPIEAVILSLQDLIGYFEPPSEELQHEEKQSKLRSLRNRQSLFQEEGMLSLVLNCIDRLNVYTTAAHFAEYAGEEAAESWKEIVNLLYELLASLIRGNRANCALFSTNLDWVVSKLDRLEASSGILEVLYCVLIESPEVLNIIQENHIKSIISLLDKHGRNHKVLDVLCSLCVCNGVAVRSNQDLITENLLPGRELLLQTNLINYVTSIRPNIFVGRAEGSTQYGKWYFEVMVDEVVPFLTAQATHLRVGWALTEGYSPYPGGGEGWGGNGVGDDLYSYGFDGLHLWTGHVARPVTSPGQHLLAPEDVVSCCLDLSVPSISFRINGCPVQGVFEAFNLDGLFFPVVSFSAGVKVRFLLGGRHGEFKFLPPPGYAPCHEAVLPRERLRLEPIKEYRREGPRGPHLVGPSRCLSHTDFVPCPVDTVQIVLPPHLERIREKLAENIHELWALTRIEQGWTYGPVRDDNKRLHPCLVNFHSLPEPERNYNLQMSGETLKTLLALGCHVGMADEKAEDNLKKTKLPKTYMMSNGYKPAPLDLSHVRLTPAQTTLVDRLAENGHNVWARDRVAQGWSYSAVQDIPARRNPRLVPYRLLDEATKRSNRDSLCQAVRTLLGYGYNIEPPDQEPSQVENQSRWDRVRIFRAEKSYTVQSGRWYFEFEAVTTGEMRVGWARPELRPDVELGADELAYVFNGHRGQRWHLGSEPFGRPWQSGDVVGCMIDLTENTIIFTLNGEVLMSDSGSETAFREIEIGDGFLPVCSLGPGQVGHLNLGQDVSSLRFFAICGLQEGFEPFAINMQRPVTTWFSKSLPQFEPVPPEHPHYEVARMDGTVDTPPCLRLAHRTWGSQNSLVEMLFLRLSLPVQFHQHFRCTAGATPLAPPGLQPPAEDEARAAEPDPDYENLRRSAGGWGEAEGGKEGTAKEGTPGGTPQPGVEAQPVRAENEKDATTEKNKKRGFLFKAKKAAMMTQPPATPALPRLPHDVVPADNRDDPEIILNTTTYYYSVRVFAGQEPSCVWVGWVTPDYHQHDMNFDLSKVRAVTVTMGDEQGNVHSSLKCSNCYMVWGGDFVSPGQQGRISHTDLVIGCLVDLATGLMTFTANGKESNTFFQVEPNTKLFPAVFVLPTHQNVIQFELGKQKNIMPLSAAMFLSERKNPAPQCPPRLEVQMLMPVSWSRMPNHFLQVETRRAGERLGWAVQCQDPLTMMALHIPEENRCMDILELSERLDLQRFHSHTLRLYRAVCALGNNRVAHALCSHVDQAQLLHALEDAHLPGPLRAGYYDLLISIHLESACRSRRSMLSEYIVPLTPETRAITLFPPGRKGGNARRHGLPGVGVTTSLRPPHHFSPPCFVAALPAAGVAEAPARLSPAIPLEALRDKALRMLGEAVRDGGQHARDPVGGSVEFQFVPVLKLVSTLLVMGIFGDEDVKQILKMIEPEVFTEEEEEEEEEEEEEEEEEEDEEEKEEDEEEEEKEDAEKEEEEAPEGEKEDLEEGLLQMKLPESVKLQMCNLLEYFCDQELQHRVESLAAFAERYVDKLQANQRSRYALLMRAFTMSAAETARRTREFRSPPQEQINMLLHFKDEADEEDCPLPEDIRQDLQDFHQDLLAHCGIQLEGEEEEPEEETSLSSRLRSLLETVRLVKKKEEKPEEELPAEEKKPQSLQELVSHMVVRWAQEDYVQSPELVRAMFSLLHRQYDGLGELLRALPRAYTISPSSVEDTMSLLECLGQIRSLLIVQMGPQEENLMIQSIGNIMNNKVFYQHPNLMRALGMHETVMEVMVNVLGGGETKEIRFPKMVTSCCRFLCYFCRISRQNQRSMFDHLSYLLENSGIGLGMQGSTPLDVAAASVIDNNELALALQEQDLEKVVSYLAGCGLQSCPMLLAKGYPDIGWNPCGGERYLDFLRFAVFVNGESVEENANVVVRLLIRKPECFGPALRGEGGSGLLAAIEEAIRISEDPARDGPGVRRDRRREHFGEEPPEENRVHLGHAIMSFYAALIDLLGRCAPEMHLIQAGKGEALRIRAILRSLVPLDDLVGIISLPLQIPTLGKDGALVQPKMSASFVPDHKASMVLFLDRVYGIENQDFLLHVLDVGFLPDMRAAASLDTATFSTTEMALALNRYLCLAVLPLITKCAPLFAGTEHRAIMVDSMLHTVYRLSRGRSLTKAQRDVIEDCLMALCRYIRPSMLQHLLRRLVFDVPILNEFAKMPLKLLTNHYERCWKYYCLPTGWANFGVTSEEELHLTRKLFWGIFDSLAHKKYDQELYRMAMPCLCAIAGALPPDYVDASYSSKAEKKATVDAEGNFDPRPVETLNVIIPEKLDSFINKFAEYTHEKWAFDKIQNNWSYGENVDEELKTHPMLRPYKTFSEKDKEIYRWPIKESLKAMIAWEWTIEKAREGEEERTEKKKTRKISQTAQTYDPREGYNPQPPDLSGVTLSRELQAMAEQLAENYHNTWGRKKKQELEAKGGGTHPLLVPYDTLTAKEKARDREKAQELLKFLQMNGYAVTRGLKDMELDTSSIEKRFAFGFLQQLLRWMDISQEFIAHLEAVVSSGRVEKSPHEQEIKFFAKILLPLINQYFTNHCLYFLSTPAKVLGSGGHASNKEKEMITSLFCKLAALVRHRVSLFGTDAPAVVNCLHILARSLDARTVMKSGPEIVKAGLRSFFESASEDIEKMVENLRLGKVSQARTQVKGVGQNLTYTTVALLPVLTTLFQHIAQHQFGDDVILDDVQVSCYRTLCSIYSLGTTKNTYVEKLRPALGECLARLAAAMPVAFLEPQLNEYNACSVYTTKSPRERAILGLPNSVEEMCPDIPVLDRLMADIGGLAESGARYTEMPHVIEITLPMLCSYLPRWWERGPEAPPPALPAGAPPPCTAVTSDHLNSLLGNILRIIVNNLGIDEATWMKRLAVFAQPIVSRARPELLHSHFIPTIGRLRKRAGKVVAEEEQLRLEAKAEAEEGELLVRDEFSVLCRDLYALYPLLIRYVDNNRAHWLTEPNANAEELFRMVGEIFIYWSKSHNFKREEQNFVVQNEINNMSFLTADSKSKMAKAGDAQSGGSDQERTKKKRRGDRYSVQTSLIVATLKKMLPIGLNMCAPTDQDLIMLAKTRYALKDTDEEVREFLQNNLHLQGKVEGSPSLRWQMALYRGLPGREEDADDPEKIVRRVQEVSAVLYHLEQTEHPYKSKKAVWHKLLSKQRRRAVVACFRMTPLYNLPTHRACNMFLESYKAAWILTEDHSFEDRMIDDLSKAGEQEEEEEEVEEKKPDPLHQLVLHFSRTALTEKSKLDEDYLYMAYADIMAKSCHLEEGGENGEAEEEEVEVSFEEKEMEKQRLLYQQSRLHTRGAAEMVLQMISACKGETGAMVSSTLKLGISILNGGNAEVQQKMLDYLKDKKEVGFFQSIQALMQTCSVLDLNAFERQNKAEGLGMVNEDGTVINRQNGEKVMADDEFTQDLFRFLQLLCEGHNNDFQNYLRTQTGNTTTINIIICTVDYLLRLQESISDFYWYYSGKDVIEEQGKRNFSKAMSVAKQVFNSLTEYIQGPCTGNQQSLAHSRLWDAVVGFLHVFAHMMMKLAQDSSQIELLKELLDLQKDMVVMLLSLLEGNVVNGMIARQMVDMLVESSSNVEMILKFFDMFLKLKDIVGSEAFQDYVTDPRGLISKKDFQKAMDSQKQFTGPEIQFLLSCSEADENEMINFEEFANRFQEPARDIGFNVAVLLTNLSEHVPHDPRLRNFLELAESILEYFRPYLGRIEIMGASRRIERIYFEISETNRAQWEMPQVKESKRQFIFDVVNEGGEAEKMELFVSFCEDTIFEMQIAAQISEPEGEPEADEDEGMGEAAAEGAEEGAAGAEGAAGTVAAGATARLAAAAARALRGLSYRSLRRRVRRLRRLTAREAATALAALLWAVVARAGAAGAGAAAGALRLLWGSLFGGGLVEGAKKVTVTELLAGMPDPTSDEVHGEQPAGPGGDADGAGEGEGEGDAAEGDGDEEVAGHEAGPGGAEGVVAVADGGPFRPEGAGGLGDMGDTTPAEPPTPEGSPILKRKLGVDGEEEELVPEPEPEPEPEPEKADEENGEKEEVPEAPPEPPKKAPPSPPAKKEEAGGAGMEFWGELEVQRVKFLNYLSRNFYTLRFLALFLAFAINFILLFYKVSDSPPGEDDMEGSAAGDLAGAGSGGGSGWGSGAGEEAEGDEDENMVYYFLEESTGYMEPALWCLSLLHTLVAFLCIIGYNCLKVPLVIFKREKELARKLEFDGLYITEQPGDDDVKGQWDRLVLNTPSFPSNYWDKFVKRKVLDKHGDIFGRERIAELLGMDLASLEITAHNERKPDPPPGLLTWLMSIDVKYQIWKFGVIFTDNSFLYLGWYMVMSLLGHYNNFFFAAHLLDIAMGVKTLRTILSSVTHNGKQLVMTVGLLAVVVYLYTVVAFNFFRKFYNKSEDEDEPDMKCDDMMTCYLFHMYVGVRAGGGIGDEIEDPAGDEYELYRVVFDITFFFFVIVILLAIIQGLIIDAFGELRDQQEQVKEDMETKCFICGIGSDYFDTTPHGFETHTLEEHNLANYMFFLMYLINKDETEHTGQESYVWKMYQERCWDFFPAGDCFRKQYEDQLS

With `CC(C)[C@@]1(O)[C@@H](OC(=O)c2cccnc2)[C@@]2(O)[C@]3(C)C[C@@]4(O)O[C@@]5([C@H](O)[C@@H](C)CC[C@]35O)[C@@]2(O)[C@@]41C`, the result (with Musca domestica; in the series with Tribolium castaneum; in series [1]) was inactive. Also, the Activity entry in the series with Mus musculus is “Not Active”.
As to `CC(C)[C@@]1(O)[C@@H](OC(=O)c2cc[nH]c2)[C@@]2(O)[C@]3(C)C[C@@]4(O)O[C@@]5([C@H](O)[C@@H](C)CC[C@]35O)[C@@]2(O)[C@@]41C`, the outcome in the series on Musca domestica and in the series with Tribolium castaneum was Active.
`CC(C)[C@@]1(O)[C@@H](OC(=O)c2ccc[nH]2)[C@@]2(O)[C@@]3(C)C[C@]4(O)O[C@@]5([C@H](O)[C@@H](C)CC[C@]35O)[C@@]2(O)[C@@]14C` [RYANODINE]: in the series with Mus musculus, the outcome was Active.
